Laboratory results from ChEMBL document CHEMBL1201861, “Genomics of Drug Sensitity in Cancer screening data, Wellcome Trust Sanger Institute”.
pIC50: −log10 of the molar value.

What was measured:
Assay in all cases: cells
COR-L88 = format: functional, cell-based, Homo sapiens; details: Homo sapiens, COR-L88
Description: SANGER: Inhibition of human COR-L88 cell growth in a cell viability assay.

A101D = format: functional, cell-based, Homo sapiens; details: Homo sapiens, A101D
Description: SANGER: Inhibition of human A101D cell growth in a cell viability assay.

D283 Med = format: functional, cell-based, Homo sapiens; details: Homo sapiens, D283 Med
Description: SANGER: Inhibition of human D-283MED cell growth in a cell viability assay.

NCI-H526 = format: functional, cell-based, Homo sapiens; details: Homo sapiens, NCI-H526
Description: SANGER: Inhibition of human NCI-H526 cell growth in a cell viability assay.

LS-411N = format: functional, cell-based, Homo sapiens; details: Homo sapiens, LS-411N
HCE-T = format: functional, cell-based, Homo sapiens; details: Homo sapiens, HCE-T
Description: SANGER: Inhibition of human HCE-T cell growth in a cell viability assay.

MPP-89 = format: functional, cell-based, Homo sapiens; details: Homo sapiens, MPP-89
Description: SANGER: Inhibition of human MPP-89 cell growth in a cell viability assay.

D-247MG = format: functional, cell-based; details: Homo sapiens
Description: SANGER: Inhibition of human D-247MG cell growth in a cell viability assay.

SF-268 = format: functional, cell-based, Homo sapiens; details: Homo sapiens, SF-268
Description: SANGER: Inhibition of human SF268 cell growth in a cell viability assay.

EW-11 = format: functional, cell-based, Homo sapiens; details: Homo sapiens, EW-11
Description: SANGER: Inhibition of human EW-11 cell growth in a cell viability assay.

ACN = format: functional, cell-based, Homo sapiens; details: Homo sapiens, ACN
Description: SANGER: Inhibition of human ACN cell growth in a cell viability assay.

NCI-H1304 = format: functional, cell-based, Homo sapiens; details: Homo sapiens, NCI-H1304
Description: SANGER: Inhibition of human NCI-H1304 cell growth in a cell viability assay.

GR-ST = format: functional, cell-based, Homo sapiens; details: Homo sapiens, GR-ST
Description: SANGER: Inhibition of human GR-ST cell growth in a cell viability assay.

UACC-62 = format: functional, cell-based; details: Homo sapiens
Description: SANGER: Inhibition of human UACC-62 cell growth in a cell viability assay.

ETK-1 = format: functional, cell-based, Homo sapiens; details: Homo sapiens, ETK-1
Description: SANGER: Inhibition of human ETK-1 cell growth in a cell viability assay.

SJRH30 = format: functional, cell-based; details: Homo sapiens
Description: SANGER: Inhibition of human SJRH30 cell growth in a cell viability assay.

SK-N-DZ = format: functional, cell-based, Homo sapiens; details: Homo sapiens, SK-N-DZ; read-out: IC50
Description: SANGER: Inhibition of human SK-N-DZ cell growth in a cell viability assay.

KM12 = format: functional, cell-based, Homo sapiens; details: Homo sapiens, KM12
Description: SANGER: Inhibition of human KM12 cell growth in a cell viability assay.

AM-38 = format: functional, cell-based, Homo sapiens; details: Homo sapiens, AM-38
Description: SANGER: Inhibition of human AM-38 cell growth in a cell viability assay.

Becker = format: functional, cell-based, Homo sapiens; details: Homo sapiens, Becker
Description: SANGER: Inhibition of human Becker cell growth in a cell viability assay.

P30-OHK = format: functional, cell-based, Homo sapiens; details: Homo sapiens, P30-OHK
Description: SANGER: Inhibition of human P30-OHK cell growth in a cell viability assay.

MHH-PREB-1 = format: functional, cell-based, Homo sapiens; details: Homo sapiens, MHH-PREB-1
Description: SANGER: Inhibition of human MHH-PREB-1 cell growth in a cell viability assay.

LB831-BLC = format: functional, cell-based, Homo sapiens; details: Homo sapiens, LB831-BLC
Description: SANGER: Inhibition of human LB831-BLC cell growth in a cell viability assay.

NCI-H446 = format: functional, cell-based, Homo sapiens; details: Homo sapiens, NCI-H446
Description: SANGER: Inhibition of human NCI-H446 cell growth in a cell viability assay.

TE-5 = format: functional, cell-based, Homo sapiens; details: Homo sapiens, TE-5
Description: SANGER: Inhibition of human TE-5 cell growth in a cell viability assay.

KARPAS-45 = format: functional, cell-based, Homo sapiens; details: Homo sapiens, KARPAS-45
Description: SANGER: Inhibition of human KARPAS-45 cell growth in a cell viability assay.

COLO-824 = format: functional, cell-based, Homo sapiens; details: Homo sapiens, COLO-824
Description: SANGER: Inhibition of human COLO-824 cell growth in a cell viability assay.

D-502MG = format: functional, cell-based, Homo sapiens; details: Homo sapiens, D-502MG
Description: SANGER: Inhibition of human D-502MG cell growth in a cell viability assay.

CTV-1 = format: functional, cell-based, Homo sapiens; details: Homo sapiens, CTV-1
Description: SANGER: Inhibition of human CTV-1 cell growth in a cell viability assay.

NCI-H1770 = format: functional, cell-based, Homo sapiens; details: Homo sapiens, NCI-H1770
Description: SANGER: Inhibition of human NCI-H1770 cell growth in a cell viability assay.

RXF 393 = format: functional, cell-based, Homo sapiens; details: Homo sapiens, RXF 393
Description: SANGER: Inhibition of human RXF393 cell growth in a cell viability assay.

MLMA = format: functional, cell-based, Homo sapiens; details: Homo sapiens, MLMA
Description: SANGER: Inhibition of human MLMA cell growth in a cell viability assay.

VA-ES-BJ = format: functional, cell-based, Homo sapiens; details: Homo sapiens, VA-ES-BJ
Description: SANGER: Inhibition of human VA-ES-BJ cell growth in a cell viability assay.

COLO-668 = format: functional, cell-based, Homo sapiens; details: Homo sapiens, COLO-668
Description: SANGER: Inhibition of human COLO-668 cell growth in a cell viability assay.

IA-LM = format: functional, cell-based; details: Homo sapiens
Description: SANGER: Inhibition of human IA-LM cell growth in a cell viability assay.

Calu-6 = format: functional, cell-based, Homo sapiens; details: Homo sapiens, Calu-6
Description: SANGER: Inhibition of human Calu-6 cell growth in a cell viability assay.

KNS-81-FD = format: functional, cell-based, Homo sapiens; details: Homo sapiens, KNS-81-FD
Description: SANGER: Inhibition of human KNS-81-FD cell growth in a cell viability assay.

RERF-LC-MS = format: functional, cell-based; details: Homo sapiens
Description: SANGER: Inhibition of human RERF-LC-MS cell growth in a cell viability assay.

TE-6 = format: functional, cell-based, Homo sapiens; details: Homo sapiens, TE-6
Description: SANGER: Inhibition of human TE-6 cell growth in a cell viability assay.

EW-18 = format: functional, cell-based, Homo sapiens; details: Homo sapiens, EW-18; read-out: IC50
Description: SANGER: Inhibition of human EW-18 cell growth in a cell viability assay.

KY821 = format: functional, cell-based, Homo sapiens; details: Homo sapiens, KY821
Description: SANGER: Inhibition of human KY821 cell growth in a cell viability assay.

MS-1 = format: functional, cell-based, Homo sapiens; details: Homo sapiens, MS-1
Description: SANGER: Inhibition of human MS-1 cell growth in a cell viability assay.

MFM-223 = format: functional, cell-based, Homo sapiens; details: Homo sapiens, MFM-223
Description: SANGER: Inhibition of human MFM-223 cell growth in a cell viability assay.

SNB-75 = format: functional, cell-based, Homo sapiens; details: Homo sapiens, SNB-75
Description: SANGER: Inhibition of human SNB75 cell growth in a cell viability assay.

BB49-HNC = format: functional, cell-based, Homo sapiens; details: Homo sapiens, BB49-HNC
Description: SANGER: Inhibition of human BB49-HNC cell growth in a cell viability assay.

LS-1034 = format: functional, cell-based, Homo sapiens; details: Homo sapiens, LS-1034
Description: SANGER: Inhibition of human LS-1034 cell growth in a cell viability assay.

A4-Fuk = format: functional, cell-based, Homo sapiens; details: Homo sapiens, A4-Fuk
Description: SANGER: Inhibition of human A4-Fuk cell growth in a cell viability assay.

TGBC1TKB = format: functional, cell-based, Homo sapiens; details: Homo sapiens, TGBC1TKB
Description: SANGER: Inhibition of human TGBC1TKB cell growth in a cell viability assay.

EKVX = format: functional, cell-based, Homo sapiens; details: Homo sapiens, EKVX
Description: SANGER: Inhibition of human EKVX cell growth in a cell viability assay.

LB1047-RCC = format: functional, cell-based, Homo sapiens; details: Homo sapiens, LB1047-RCC
Description: SANGER: Inhibition of human LB1047-RCC cell growth in a cell viability assay.

## O=C1NC(=O)c2c1c(-c1ccccc1Cl)cc1[nH]c3ccc(O)cc3c21
COR-L88
  pIC50: 5.81
A101D
  pIC50: < 5.70
D283 Med
  pIC50: < 5.70
NCI-H526
  pIC50: < 5.70
LS-411N
  pIC50: < 5.70
HCE-T
  pIC50: < 5.70
MPP-89
  pIC50: < 5.70
D-247MG
  pIC50: < 5.70
SF-268
  pIC50: < 5.70
EW-11
  pIC50: < 5.70
ACN
  pIC50: < 5.70
NCI-H1304
  pIC50: < 5.70
GR-ST
  pIC50: 6.01
UACC-62
  pIC50: < 5.70
ETK-1
  pIC50: < 5.70
SJRH30
  pIC50: < 5.70
SK-N-DZ
  pIC50: < 5.70
KM12
  pIC50: < 5.70
AM-38
  pIC50: < 5.70
Becker
  pIC50: < 5.70
P30-OHK
  pIC50: 5.72
MHH-PREB-1
  pIC50: 6.28
LB831-BLC
  pIC50: < 5.70
NCI-H446
  pIC50: < 5.70
TE-5
  pIC50: < 5.70
KARPAS-45
  pIC50: < 5.70
COLO-824
  pIC50: < 5.70
D-502MG
  pIC50: < 5.70
CTV-1
  pIC50: < 5.70
NCI-H1770
  pIC50: < 5.70
RXF 393
  pIC50: < 5.70
MLMA
  pIC50: 6.27
VA-ES-BJ
  pIC50: 5.82
COLO-668
  pIC50: < 5.70
IA-LM
  pIC50: < 5.70
Calu-6
  pIC50: < 5.70
KNS-81-FD
  pIC50: < 5.70
RERF-LC-MS
  pIC50: < 5.70
TE-6
  pIC50: < 5.70
EW-18
  pIC50: < 5.70
KY821
  pIC50: < 5.70
MS-1
  pIC50: 6.11
MFM-223
  pIC50: < 5.70
SNB-75
  pIC50: < 5.70
BB49-HNC
  pIC50: < 5.70
LS-1034
  pIC50: < 5.70
A4-Fuk
  pIC50: < 5.70
TGBC1TKB
  pIC50: < 5.70

## O=C(NCCCNc1nc(Nc2cccc(NC(=O)N3CCCC3)c2)ncc1I)c1cccs1 [BX-795]
A101D
  pIC50: 5.44
D283 Med
  pIC50: 5.98
EKVX
  pIC50: < 5.30
NCI-H526
  pIC50: < 5.30
LS-411N
  pIC50: < 5.30
HCE-T
  pIC50: < 5.30
MPP-89
  pIC50: < 5.30
D-247MG
  pIC50: 5.49
SF-268
  pIC50: 5.40
EW-11
  pIC50: < 5.30
ACN
  pIC50: < 5.30
NCI-H1304
  pIC50: < 5.30
GR-ST
  pIC50: 5.30
UACC-62
  pIC50: < 5.30
ETK-1
  pIC50: 5.34
SJRH30
  pIC50: < 5.30
SK-N-DZ
  pIC50: < 5.30
KM12
  pIC50: 5.48
AM-38
  pIC50: < 5.30
Becker
  pIC50: 5.52
P30-OHK
  pIC50: 6.30
MHH-PREB-1
  pIC50: 5.55
LB831-BLC
  pIC50: < 5.30
NCI-H446
  pIC50: 5.31
TE-5
  pIC50: < 5.30
COLO-824
  pIC50: < 5.30
D-502MG
  pIC50: < 5.30
NCI-H1770
  pIC50: < 5.30
RXF 393
  pIC50: 5.47
MLMA
  pIC50: < 5.30
VA-ES-BJ
  pIC50: 6.01
COLO-668
  pIC50: < 5.30
IA-LM
  pIC50: 5.31
Calu-6
  pIC50: < 5.30
KNS-81-FD
  pIC50: < 5.30
RERF-LC-MS
  pIC50: < 5.30
TE-6
  pIC50: < 5.30
LB1047-RCC
  pIC50: 5.89
MS-1
  pIC50: < 5.30
MFM-223
  pIC50: < 5.30
SNB-75
  pIC50: < 5.30
BB49-HNC
  pIC50: < 5.30
LS-1034
  pIC50: < 5.30
A4-Fuk
  pIC50: < 5.30
TGBC1TKB
  pIC50: < 5.30
